Test results: patent US12247010B2, “Tubulin inhibitors” (LIN BIOSCIENCE PTY LTD., priority 2017, dated 2025)
pIC50: −log10 of the molar value.

These compounds were tested on U87MG cells (assay: Cytotoxicity assay (cell viability, CellTiter 96 Aqueous MTS)). Conditions: Homo sapiens, U-87 MG, 72 h, 72 hours incubation, starting concentration 50 uM, 9 point half log dilution, average where tested repeatedly.
Type: cell-based
Description: Example 3: Cytotoxicity Assay
U87MG cells were plated at a density of 7×10^3 cells/well and allowed to seed overnight. Cells were then treated with compounds from Table 1 or CMPD-1 (4-(2′-fluoro-[1,1′-biphenyl]-4-yl)-N-(4-hydroxyphenyl)butanamide as a positive control) were added to cells at a starting concentration of 50 uM, with a 9 point half log dilution, and incubated for 72 hours prior to viability determination. IC50 values were calculated from cell viability as measured using the CellTiter 96® Aqueous MTS reagent from Promega©, and the results are shown in Table 2.

SMILES | pIC50
O=C(CCCc1ccc(-c2nnco2)cc1)Nc1cccnc1 [Compound 204, 4-(4-(1,3,4-oxadiazol-2-yl)phenyl)-N-(pyridin-3-yl)butanamide] | 5.30 to 6.00
CC(C)c1cc(C(=O)NCCCc2ccc(-c3ccccc3F)cc2)n(C)n1 [Compound 142, N-(3-(2′-fluoro-[1,1′-biphenyl]-4-yl)propyl)-3-isopropyl-1-methyl-1H-pyrazole-5-carboxamide] | < 5.30
Cn1cnc2cc(-c3ccc(CCCC(=O)Nc4cccnc4)cc3)ccc21 [Compound 296, 4-(4-(1-methyl-1H-benzo [d]imidazol-5-yl)phenyl)-N-(pyridin-3-yl)butanamide] | > 6.30
Cc1ncc(C(=O)NCCCc2ccc(-c3cnc4[nH]ccc4c3)cc2)s1 [Compound 309, N-(3-(4-(1H-pyrrolo[2,3-b]pyridin-5-yl)phenyl)propyl)-2-methylthiazole-5-carboxamide] | > 6.30
O=C(CCCc1ccc(-c2ccccc2F)cc1)Nc1nccs1 [Compound 38, 4-(2′-fluoro-[1,1′-biphenyl]-4-yl)-N-(thiazol-2-yl)butanamide] | < 5.30
O=C(NCCCc1ccc(-c2ccccc2F)cc1)c1ccc[nH]1 [Compound 134, N-(3-(2′-fluoro-[1,1′-biphenyl]-4-yl)propyl)-1H-pyrrole-2-carboxamide] | 5.30 to 6.00
O=C(CCCc1ccc(-c2ccccc2)cc1)Nc1cccnc1 [Compound 151, 4-([1,1′-biphenyl]-4-yl)-N-(pyridin-3-yl)butanamide] | 5.30 to 6.00
O=C(NCCCc1ccc(-c2ccccc2F)cc1)c1ccc2cn[nH]c2c1 [Compound 79, N-(3-(2′-fluoro-[1,1′-biphenyl]-4-yl)propyl)-1H-indazole-6-carboxamide] | < 5.30
O=C(CCCc1ccc(-c2ccccc2F)cc1)NC1CCC(F)(F)CC1 [Compound 54, N-(4,4-difluorocyclohexyl)-4-(2′-fluoro-[1,1′-biphenyl]-4-yl)butanamide] | < 5.30
O=C(Nc1ccc2[nH]ccc2c1)OCCc1ccc(-c2ccccc2F)cc1 [Compound 272, 2-(2′-fluoro-[1,1′-biphenyl]-4-yl)ethyl (1H-indol-5-yl)carbamate] | < 5.30
Cc1nn(C)cc1C(=O)NCCCc1ccc(-c2ccccc2F)cc1 [Compound 133, N-(3-(2′-fluoro-[1,1′-biphenyl]-4-yl)propyl)-1,3-dimethyl-1H-pyrazole-4-carboxamide] | < 5.30
O=C(CCCc1ccc(-c2cc(Cl)ccc2F)cc1)Nc1cccnc1 [Compound 179, 4-(5′-chloro-2′-fluoro-[1,1′-biphenyl]-4-yl)-N-(pyridin-3-yl)butanamide] | < 5.30
Cn1cnc2ccc(-c3ccc(CCCC(=O)Nc4cccnc4)cc3)cc2c1=O [Compound 299, 4-(4-(3-methyl-4-oxo-3,4-dihydroquinazolin-6-yl)phenyl)-N-(pyridin-3-yl)butanamide] | < 5.30
Cc1ccc(C(=O)NCC(C)(C)Cc2ccc(-c3ccc4c(cnn4C)c3)cc2)cn1 [Compound 277, N-(2,2-dimethyl-3-(4-(1-methyl-1H-indazol-5-yl)phenyl)propyl)-6-methylnicotinamide] | 6.00 to 6.30
O=C(CCCc1ccc(-c2ccccc2F)cc1)Nc1ccc2c(c1)CNC2=O [Compound 59, 4-(2′-fluoro-[1,1′-biphenyl]-4-yl)-N-(1-oxoisoindolin-5-yl)butanamide] | < 5.30
Cc1cnc(C(=O)NCCCc2ccc(-c3ccccc3F)cc2)s1 [Compound 132, N-(3-(2′-fluoro-[1,1′-biphenyl]-4-yl)propyl)-5-methylthiazole-2-carboxamide] | < 5.30
Cc1ccc(NC(=O)CCCc2ccc(-c3ccccc3F)cc2)cn1 [Compound 45, 4-(2′-fluoro-[1,1′-biphenyl]-4-yl)-N-(6-methylpyridin-3-yl)butanamide] | > 6.30

SMILES | pIC50
Cc1nn(C)c2ccc(-c3ccc(CCCC(=O)Nc4cccnc4)cc3)cc12 [Compound 191, 4-(4-(1,3-dimethyl-1H-indazol-5-yl)phenyl)-N-(pyridin-3-yl)butanamide] | 5.30 to 6.00
O=C(CCCc1ccc(-c2cnn(Cc3ccccc3)c2)cc1)Nc1cccnc1 [Compound 193, 4-(4-(1-benzyl-1H-pyrazol-4-yl)phenyl)-N-(pyridin-3-yl)butanamide] | < 5.30
Cc1cc(C(=O)NCCCc2ccc(-c3ccc4c(cnn4C)c3)cc2)n(C)n1 [Compound 236, 1,3-dimethyl-N-(3-(4-(1-methyl-1H-indazol-5-yl)phenyl)propyl)-1H-pyrazole-5-carboxamide] | > 6.30
O=C(NCCCc1ccc(-c2ccccc2F)cc1)c1cnc2ccccn12 [Compound 137, N-(3-(2′-fluoro-[1,1′-biphenyl]-4-yl)propyl)imidazo[1,2-a]pyridine-3-carboxamide] | 5.30 to 6.00
CCn1nc(C)cc1C(=O)NCCCc1ccc(-c2ccccc2F)cc1 [Compound 109, 1-ethyl-N-(3-(2′-fluoro-[1,1′-biphenyl]-4-yl)propyl)-3-methyl-1H-pyrazole-5-carboxamide] | 6.00 to 6.30
O=C(CCCc1ccc(-c2c[nH]c3ncccc23)cc1)Nc1cccnc1 [Compound 295, 4-(4-(1H-pyrrolo[2,3-b]pyridin-3-yl)phenyl)-N-(pyridin-3-yl)butanamide] | 5.30 to 6.00
Cn1cc2c(-c3ccc(CCCC(=O)Nc4cccnc4)cc3)cccc2n1 [Compound 165, 4-(4-(2-methyl-2H-indazol-4-yl)phenyl)-N-(pyridin-3-yl)butanamide] | 5.30 to 6.00
COc1ccc(-c2ccc(CCCC(=O)Nc3cccnc3)cc2)cc1OC [Compound 168, 4-(3′,4′-dimethoxy-[1,1′-biphenyl]-4-yl)-N-(pyridin-3-yl)butanamide] | 5.30 to 6.00
CN(C(=O)CCCc1ccc(-c2ccccc2F)cc1)c1cccnc1 [Compound 52, 4-(2′-fluoro-[1,1′-biphenyl]-4-yl)-N-methyl-N-(pyridin-3-yl)butanamide] | < 5.30
Cc1ccc2cc(-c3ccc(CCCC(=O)Nc4cccnc4)cc3)ccc2n1 [Compound 199, 4-(4-(2-methylquinolin-6-yl)phenyl)-N-(pyridin-3-yl)butanamide] | 6.00 to 6.30
COc1ncccc1C(=O)NCCCc1ccc(-c2ccccc2F)cc1 [Compound 292, N-(3-(2′-fluoro-[1,1′-biphenyl]-4-yl)propyl)-2-methoxynicotinamide] | < 5.30
Cc1cc(C(=O)NCCCc2ccc(-c3ccccc3F)cc2)nn1C [Compound 125, N-(3-(2′-fluoro-[1,1′-biphenyl]-4-yl)propyl)-1,5-dimethyl-1H-pyrazole-3-carboxamide] | < 5.30
O=C(NCCCc1ccc(-c2ccccc2F)cc1)[C@H]1C[C@@H](O)C1 [Compound 77, (1s,3s)-N-(3-(2′-fluoro-[1,1′-biphenyl]-4-yl)propyl)-3-hydroxycyclobutane-1-carboxamide] | < 5.30
Cc1cc(C(=O)NCCCc2ccc(-c3ccc4c(c3)OCC(=O)N4)cc2)n(C)n1 [Compound 313, 1,3-dimethyl-N-(3-(4-(3-oxo-3,4-dihydro-2H-benzo[b][1,4]oxazin-7-yl)phenyl)propyl)-1H-pyrazole-5-carboxamide] | > 6.30
O=C(NCCCc1ccc(-c2ccccc2F)cc1)c1cccnc1 [Compound 64, N-(3-(2′-fluoro-[1,1′-biphenyl]-4-yl)propyl)nicotinamide] | > 6.30
O=C(CCCc1ccc(Cc2ccccc2)cc1)Nc1cccnc1 [Compound 186, 4-(4-benzylphenyl)-N-(pyridin-3-yl)butanamide] | < 5.30
